Laboratory results reported in patent publication US11739098B2 (BRISTOL-MYERS SQUIBB COMPANY, priority 2017, dated 2023).

Columns and labels:
Assay type in all cases: cell-based
human TLR8 = target: T1, human TLR8 (Homo sapiens, UniProt Q9NR97); assay: TLR8 inhibition reporter assay (HEK-Blue cells, SEAP reporter, R848 stimulation); conditions: HEK-Blue cells overexpressing human TLR8, SEAP reporter, R848 15.9 μM
T1 construct: host or cells: HEK-Blue cells (HEK293-derived reporter line)
T1 sequence (Q9NR97 27-1041): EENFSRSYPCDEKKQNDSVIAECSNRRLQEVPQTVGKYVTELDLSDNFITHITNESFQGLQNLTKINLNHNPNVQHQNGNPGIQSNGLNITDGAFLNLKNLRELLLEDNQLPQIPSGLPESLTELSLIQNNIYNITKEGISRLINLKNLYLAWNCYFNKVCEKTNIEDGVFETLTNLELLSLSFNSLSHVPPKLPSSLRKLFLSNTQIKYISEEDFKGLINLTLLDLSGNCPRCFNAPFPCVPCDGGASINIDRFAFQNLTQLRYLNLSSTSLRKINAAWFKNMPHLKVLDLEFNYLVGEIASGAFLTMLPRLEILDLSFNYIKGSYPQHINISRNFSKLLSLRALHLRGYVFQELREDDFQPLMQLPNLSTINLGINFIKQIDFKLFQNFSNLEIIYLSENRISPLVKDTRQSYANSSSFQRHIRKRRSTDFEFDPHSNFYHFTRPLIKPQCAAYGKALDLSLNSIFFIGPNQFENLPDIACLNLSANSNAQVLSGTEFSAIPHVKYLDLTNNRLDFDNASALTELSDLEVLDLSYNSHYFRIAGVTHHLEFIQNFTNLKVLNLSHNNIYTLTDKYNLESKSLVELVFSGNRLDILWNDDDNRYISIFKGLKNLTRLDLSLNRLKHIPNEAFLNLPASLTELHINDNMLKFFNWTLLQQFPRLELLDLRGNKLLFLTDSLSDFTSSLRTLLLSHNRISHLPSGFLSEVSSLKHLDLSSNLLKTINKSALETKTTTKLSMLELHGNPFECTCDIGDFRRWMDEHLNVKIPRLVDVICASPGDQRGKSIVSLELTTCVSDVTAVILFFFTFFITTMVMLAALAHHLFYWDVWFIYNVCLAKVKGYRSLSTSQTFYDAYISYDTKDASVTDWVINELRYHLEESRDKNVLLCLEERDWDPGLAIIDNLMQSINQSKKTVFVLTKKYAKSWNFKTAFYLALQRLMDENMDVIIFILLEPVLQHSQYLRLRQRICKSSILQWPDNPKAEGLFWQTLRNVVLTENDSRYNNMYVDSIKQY
Procedure, shortened: (§1)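 Agonists (final): TLR7 gardiquimod 7.5 μM; TLR8 R848 15.9 μM; TLR9 ODN2006 5 nM. HEK-Blue reporter cells, 30 min RT compound pre-incubation, 0.05 nM–50 μM dose range, 22 h at 37 °C, colorimetric SEAP detection medium. % inhibition relative to agonist+DMSO and known-inhibitor wells.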

human TLR7 = target: T2, human TLR7 (Homo sapiens, UniProt Q9NYK1); assay: TLR7 inhibition reporter assay (HEK-Blue cells, SEAP reporter, gardiquimod stimulation); conditions: HEK-Blue cells overexpressing human TLR7, SEAP reporter, gardiquimod 7.5 μM
T2 construct: host or cells: HEK-Blue cells (HEK293-derived reporter line)
T2 sequence (Q9NYK1 27-1049): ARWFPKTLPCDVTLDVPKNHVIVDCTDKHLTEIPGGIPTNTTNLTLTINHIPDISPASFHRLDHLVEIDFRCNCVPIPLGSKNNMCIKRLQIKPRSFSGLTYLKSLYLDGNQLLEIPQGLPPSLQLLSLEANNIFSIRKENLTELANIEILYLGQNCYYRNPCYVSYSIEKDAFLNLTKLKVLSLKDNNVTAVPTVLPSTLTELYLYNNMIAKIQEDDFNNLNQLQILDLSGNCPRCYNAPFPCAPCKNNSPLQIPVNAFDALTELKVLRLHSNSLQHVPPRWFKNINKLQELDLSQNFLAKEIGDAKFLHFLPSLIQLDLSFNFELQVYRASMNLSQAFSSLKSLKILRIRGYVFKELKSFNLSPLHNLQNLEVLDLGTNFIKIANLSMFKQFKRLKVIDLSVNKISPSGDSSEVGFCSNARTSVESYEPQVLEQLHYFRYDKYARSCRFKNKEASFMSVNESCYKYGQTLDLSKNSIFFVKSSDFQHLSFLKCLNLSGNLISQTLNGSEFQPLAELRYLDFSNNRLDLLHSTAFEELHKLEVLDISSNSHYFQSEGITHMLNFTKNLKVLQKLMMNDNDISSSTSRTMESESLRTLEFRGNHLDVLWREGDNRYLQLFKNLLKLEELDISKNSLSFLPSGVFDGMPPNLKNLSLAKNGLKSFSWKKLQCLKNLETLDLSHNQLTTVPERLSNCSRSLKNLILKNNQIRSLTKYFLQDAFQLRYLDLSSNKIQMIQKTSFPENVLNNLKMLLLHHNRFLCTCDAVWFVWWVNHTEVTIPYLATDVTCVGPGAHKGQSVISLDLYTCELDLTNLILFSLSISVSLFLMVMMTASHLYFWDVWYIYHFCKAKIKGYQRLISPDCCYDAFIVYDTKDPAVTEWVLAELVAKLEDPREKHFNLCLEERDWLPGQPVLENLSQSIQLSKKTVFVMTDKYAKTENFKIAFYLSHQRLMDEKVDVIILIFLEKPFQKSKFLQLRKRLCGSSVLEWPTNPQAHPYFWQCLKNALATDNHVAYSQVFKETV
Procedure, shortened: as §1

human TLR9 = target: T3, human TLR9 (Homo sapiens, UniProt Q9NR96); assay: TLR9 inhibition reporter assay (HEK-Blue cells, SEAP reporter, ODN2006 stimulation); conditions: HEK-Blue cells overexpressing human TLR9, SEAP reporter, ODN2006 5 nM
T3 construct: host or cells: HEK-Blue cells (HEK293-derived reporter line)
T3 sequence (Q9NR96 26-1032): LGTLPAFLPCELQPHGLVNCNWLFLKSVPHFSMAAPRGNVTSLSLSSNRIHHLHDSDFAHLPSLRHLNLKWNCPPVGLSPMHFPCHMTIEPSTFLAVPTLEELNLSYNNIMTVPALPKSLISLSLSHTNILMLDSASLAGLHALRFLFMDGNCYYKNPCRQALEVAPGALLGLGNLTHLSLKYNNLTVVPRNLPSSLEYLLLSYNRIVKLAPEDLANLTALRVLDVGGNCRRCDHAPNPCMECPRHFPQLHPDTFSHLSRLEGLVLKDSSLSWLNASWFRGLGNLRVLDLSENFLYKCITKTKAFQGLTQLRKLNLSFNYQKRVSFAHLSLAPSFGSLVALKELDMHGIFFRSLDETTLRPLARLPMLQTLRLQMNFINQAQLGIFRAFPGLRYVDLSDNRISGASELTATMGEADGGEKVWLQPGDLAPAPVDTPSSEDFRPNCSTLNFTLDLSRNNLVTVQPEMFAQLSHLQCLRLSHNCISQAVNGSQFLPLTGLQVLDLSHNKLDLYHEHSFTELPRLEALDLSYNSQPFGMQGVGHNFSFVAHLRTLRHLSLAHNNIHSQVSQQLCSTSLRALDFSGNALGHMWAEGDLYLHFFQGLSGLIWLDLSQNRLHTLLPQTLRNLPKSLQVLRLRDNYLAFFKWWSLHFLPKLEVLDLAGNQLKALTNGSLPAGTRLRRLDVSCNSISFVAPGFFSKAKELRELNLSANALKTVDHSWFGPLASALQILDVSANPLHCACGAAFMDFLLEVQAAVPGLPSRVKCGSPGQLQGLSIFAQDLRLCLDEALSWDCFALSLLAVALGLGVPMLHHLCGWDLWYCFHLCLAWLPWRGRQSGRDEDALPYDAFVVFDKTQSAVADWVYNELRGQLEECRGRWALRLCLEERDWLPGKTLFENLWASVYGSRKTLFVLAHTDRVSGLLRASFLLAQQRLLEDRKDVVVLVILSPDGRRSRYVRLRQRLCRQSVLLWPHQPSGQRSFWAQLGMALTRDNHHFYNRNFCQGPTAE
Procedure, shortened: as §1

Row | Structure (SMILES) | IC50 (human TLR8) | IC50 (human TLR7) | IC50 (human TLR9)
1 | CNCC(=O)N1CCC(c2ccc3[nH]c(-c4cc(C(F)(F)F)c5nccn5c4)c(C(C)C)c3c2)CC1 [Example 508, 1-(4-(3-isopropyl-2-(8-(trifluoromethyl)imidazo[1,2-a]pyridin-6-yl)-1H-indol-5-yl)piperidin-1-yl)-2-(methylamino)ethan-1-one] | 100 to 1000 nM | < 100 nM | 100 to 1000 nM
2 | CC(C)c1c(-c2ccnc3[nH]ncc23)[nH]c2cc(F)c(C3CCN(CC4CCNC4)CC3)cc12 (stereo not drawn) [Example 853, 4-(6-fluoro-3-isopropyl-5-(1-(pyrrolidin-3-ylmethyl)piperidin-4-yl)-1H-indol-2-yl)-1H-pyrazolo[3,4-b]pyridine] | < 100 nM | < 100 nM | < 100 nM
3 | Cc1cc(-c2[nH]c3ccc(C4CCN(CC(C)(C)O)CC4)cc3c2C(C)C)cc2nccn12 [Example 757, 1-(4-(3-isopropyl-2-(5-methylimidazo[1,2-a]pyridin-7-yl)-1H-indol-5-yl)piperidin-1-yl)-2-methylpropan-2-ol] | 100 to 1000 nM | 1000 to 50000 nM | 100 to 1000 nM
4 | CCc1c(C)c(-c2[nH]c3ccc(C4CCN(CC(C)(C)O)CC4)cc3c2C(C)C)cn2ccnc12 [Example 777, 1-(4-(2-(8-ethyl-7-methylimidazo[1,2-a]pyridin-6-yl)-3-isopropyl-1H-indol-5-yl)piperidin-1-yl)-2-methylpropan-2-ol] | < 100 nM | < 100 nM | 100 to 1000 nM
5 | COc1cc(-c2[nH]c3ccc(C4CCN(CCNS(C)(=O)=O)CC4)cc3c2C(C)C)nn2ncnc12 [Example 652, N-(2-(4-(3-isopropyl-2-(8-methoxy-[1,2,4]triazolo[1,5-b]pyridazin-6-yl)-1H-indol-5-yl)piperidin-1-yl)ethyl)methanesulfonamide] | < 100 nM | < 100 nM | 1000 to 50000 nM
6 | Cc1c(-c2ccnc3[nH]cc(-c4ccccc4)c23)[nH]c2ccc(C3CCNCC3)cc12 [Example 223, 4-(3-methyl-5-(piperidin-4-yl)-1H-indol-2-yl)-3-phenyl-1H-pyrrolo[2,3-b]pyridine] | 1000 to 50000 nM | 1000 to 50000 nM | 100 to 1000 nM
7 | Cc1ncc(CN2CCC(c3ccc4[nH]c(-c5ccnc6[nH]nc(C)c56)c(C(C)C)c4c3)CC2)[nH]1 [Example 872, 4-(3-isopropyl-5-(1-((2-methyl-1H-imidazol-5-yl)methyl)piperidin-4-yl)-1H-indol-2-yl)-3-methyl-1H-pyrazolo[3,4-b]pyridine] | < 100 nM | 1000 to 50000 nM | 100 to 1000 nM
8 | Cc1cc(-c2[nH]c3ccc(C4CCN(CC(=O)N(C)C)CC4)cc3c2C(C)C)cc2cccnc12 [Example 435, 2-(4-(3-isopropyl-2-(8-methylquinolin-6-yl)-1H-indol-5-yl)piperidin-1-yl)-N,N-dimethylacetamide] | < 100 nM | < 100 nM | 1000 to 50000 nM
9 | COc1cc(-c2[nH]c3ccc(C4CCN(CC(=O)N(C)C)CC4)cc3c2C(C)C)cc2ncnn12 [Example 333, 2-(4-(3-isopropyl-2-(5-methoxy-[1,2,4]triazolo[1,5-a]pyridin-7-yl)-1H-indol-5-yl)piperidin-1-yl)-N,N-dimethylacetamide] | < 100 nM | < 100 nM | 1000 to 50000 nM
10 | CNC(=O)CN1CCC(c2ccc3[nH]c(-c4ccn5nncc5c4)c(C(C)C)c3c2)CC1 [Example 303, 2-(4-(2-([1,2,3]triazolo[1,5-a]pyridin-5-yl)-3-isopropyl-1H-indol-5-yl)piperidin-1-yl)-N-methylacetamide] | 100 to 1000 nM | < 100 nM | 1000 to 50000 nM
11 | CC(C)c1c(-c2cc(C(C)(C)O)c3nccn3c2)[nH]c2ccc(C3CCN(C(=O)CN(C)C)CC3)cc12 [Example 493, 2-(dimethylamino)-1-(4-(2-(8-(2-hydroxypropan-2-yl)imidazo[1,2-a]pyridin-6-yl)-3-isopropyl-1H-indol-5-yl)piperidin-1-yl) ethan-1-one] | 1000 to 50000 nM | < 100 nM | 100 to 1000 nM
12 | COc1cc(-c2[nH]c3ccc(C4CCNCC4)cc3c2C(C)C)cc2nccn12 [Example 163, 7-(3-isopropyl-5-(piperidin-4-yl)-1H-indol-2-yl)-5-methoxyimidazo[1,2-a]pyridine] | 100 to 1000 nM | 100 to 1000 nM | 100 to 1000 nM
13 | CNCCN1CCC(c2ccc3[nH]c(-c4cncc5ccccc45)c(C)c3c2)CC1 [Example 663, 2-(4-(2-(isoquinolin-4-yl)-3-methyl-1H-indol-5-yl)piperidin-1-yl)-N-methylethan-1-amine] | > 3130 nM | 1000 to 50000 nM | 100 to 1000 nM
14 | Cc1cc(-c2[nH]c3ccc(C4CCN(Cc5ncn(C)n5)CC4)cc3c2C(C)C)cn2nnnc12 [Example 885, 6-(3-isopropyl-5-(1-((1-methyl-1H-1,2,4-triazol-3-yl)methyl)piperidin-4-yl)-1H-indol-2-yl)-8-methyltetrazolo[1,5-a]pyridine] | < 100 nM | < 100 nM | 1000 to 50000 nM
